Patent publication US5026694A, “Platinum complexes with one radiosensitizing ligand” (priority 1989, dated 1991)

What was measured:
KHT tumor model = settings: 200 mg/kg, 0.5 or 1 hour prior to X-irradiation; FIG. 6
[1] = system: L1210 cells, cDDP sensitive line; experiment: Toxicity in cisDDP-sensitive L1210 cells; assay type: cell-based; settings: listed as trans mono MISO, read-out: ID50 (the source's name)
Source text: (§1) Patients become resistant to cisplatin (cisDDP) and to many related drugs.

[2] = system: L1210 cells, cDDP resistant line; experiment: Toxicity in cisDDP-resistant L1210 cells (cross-resistance); assay type: cell-based; settings: L1210, cDDP resistant line; read-out: ID50 (the source's name)
Source text: as §1

[3] = system: Chinese hamster ovary (CHO) cells; experiment: Toxicity in hypoxic and aerated CHO cells (plating efficiency/survival); assay type: cell-based
Experimental: The toxicity of the invention compounds with respect to Chinese hamster ovary (CHO) cells was compared in air and in nitrogen induced hypoxia as described by Moore, B. A., et al, Radiation Research (1976) 67:459-478. The radiosensitizing ligands, or cis or transdichlorodiamine platinum II (DDP) or the . bisubstituted platinum complexes, PtCl2 (L)2, were used as controls.
The cells were carried in MEM a medium with 10% fetal calf serum, and plating efficiencies were determined on the seventh day after plating.
In similar experiments at 100 mM/dm^3, MISO and trans-[PtCl2 (miso)2 ] show no toxicity. Survival rates for trans-DDP and monoammine were 0.2 and 0.1 respectively.
Using 100 mM levels, mono-6NQ caused plating efficiency to drop to 0 after an hour, while 6NQ had no effect after 3 hours.

hypoxic cells = settings: Teicher et al; cited from earlier work

| Molecule | radiosensitization in vivo (KHT tumor model) | IC50 [1] | IC50 [2] | toxicity compared with other isomer ([3]; 100 mM/dm^3, FIG. 1) | approximate order of hypoxic toxicity of platinum complexes ([3]; hypoxia) | killing of hypoxic cells / toxicity toward oxygenated cells (hypoxic cells) |
| --- | --- | --- | --- | --- | --- | --- |
| COCC(O)Cn1cc[n+]([Pt-2]([NH3+])([Cl])[Cl])c1[N+](=O)[O-] (stereo not drawn) [trans-mono-MISO, PtCl2 (NH3) (misonidazole)] | enhance the effect of the X-rays | 6.5 mM | 18.6 mM | trans isomer is more toxic than cis | cis-DDP ff trans-mono-MISO f monoammine Z cis-mono-MISO f trans-DDP f mono-METRO Z mono-NI f mono-ANT | – |
| mono-substituted platinum complex of 1,2-diamino-4-nitrobenzene [Plato] | – | – | – | – | – | high capacity for killing of hypoxic cells and less toxicity toward oxygenated cells |
